From ChEMBL document CHEMBL1909046, “DrugMatrix in vitro pharmacology data”

Columns and labels:
[1] = target: Aldo-keto reductase family 1 member B1 (Rattus norvegicus, UniProt P07943); test: biochemical; assay type: tissue-based, Lens of camera-type eye;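 note: inhibition of aldose reductase enzyme activity, measured with DL-glyceraldehyde as the substrate; in other assays of this panel Not Active means under 50% inhibition at 10 µM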
Histamine H2 receptor = Histamine H2 receptor (Homo sapiens, UniProt P25021); assay type: cell membranes, CHO-K1, Membrane; conditions: cho-k1; note: in other assays of this panel Not Active means under 50% inhibition at 10 µM
Chain of Histamine H2 receptor (P25021 whole entry): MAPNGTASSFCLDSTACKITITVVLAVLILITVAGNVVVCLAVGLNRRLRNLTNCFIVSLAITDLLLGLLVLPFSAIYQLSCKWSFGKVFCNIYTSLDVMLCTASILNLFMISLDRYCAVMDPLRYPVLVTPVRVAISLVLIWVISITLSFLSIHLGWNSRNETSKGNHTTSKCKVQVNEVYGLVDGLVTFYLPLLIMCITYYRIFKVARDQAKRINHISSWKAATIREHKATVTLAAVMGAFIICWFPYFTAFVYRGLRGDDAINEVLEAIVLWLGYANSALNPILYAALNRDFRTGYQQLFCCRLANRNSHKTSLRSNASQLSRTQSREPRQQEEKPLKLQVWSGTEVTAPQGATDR

[2] = target: Beta-2 adrenergic receptor (Homo sapiens, UniProt P07550); test: DRUGMATRIX: Adrenergic beta2 radioligand binding (ligand: [3H] CGP-12177); assay type: cell membranes, Membrane; conditions: cho; Not Active = under 50% inhibition at 10 µM
Chain of Beta-2 adrenergic receptor (P07550 whole entry): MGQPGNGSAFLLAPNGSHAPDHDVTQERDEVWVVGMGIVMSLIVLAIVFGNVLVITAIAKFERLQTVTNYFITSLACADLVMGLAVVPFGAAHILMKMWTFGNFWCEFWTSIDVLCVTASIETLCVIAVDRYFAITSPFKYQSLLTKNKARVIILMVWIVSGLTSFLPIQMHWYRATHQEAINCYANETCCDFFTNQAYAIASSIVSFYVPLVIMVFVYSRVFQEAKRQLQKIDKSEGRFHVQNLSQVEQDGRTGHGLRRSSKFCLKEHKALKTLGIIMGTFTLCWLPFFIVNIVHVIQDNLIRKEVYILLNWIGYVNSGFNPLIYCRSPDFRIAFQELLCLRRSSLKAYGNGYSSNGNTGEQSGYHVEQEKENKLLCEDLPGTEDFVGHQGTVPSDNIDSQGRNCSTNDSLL

Melanocortin receptor 4 = Melanocortin receptor 4 (Homo sapiens, UniProt P32245); assay type: cell membranes, HEK293, Membrane; conditions: hek293; note: in other assays of this panel Not Active means under 50% inhibition at 10 µM
Chain of Melanocortin receptor 4 (P32245 whole entry): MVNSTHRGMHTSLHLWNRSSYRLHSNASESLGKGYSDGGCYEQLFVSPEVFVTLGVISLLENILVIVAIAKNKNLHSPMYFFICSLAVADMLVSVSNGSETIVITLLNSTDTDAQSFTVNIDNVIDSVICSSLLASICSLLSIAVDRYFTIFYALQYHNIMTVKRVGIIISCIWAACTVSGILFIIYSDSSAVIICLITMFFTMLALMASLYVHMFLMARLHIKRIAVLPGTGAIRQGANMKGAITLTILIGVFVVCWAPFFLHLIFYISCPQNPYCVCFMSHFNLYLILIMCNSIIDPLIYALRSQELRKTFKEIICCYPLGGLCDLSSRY

[3] = target: T1, Alpha-1A adrenergic receptor (Rattus norvegicus, UniProt P43140); test: DRUGMATRIX: Alpha-1A adrenergic receptor radioligand binding (ligand: prazosin); assay type: cell membranes, Wistar, Submaxillary gland, Membrane; conditions: Not Active = under 50% inhibition at 10 µM
T1 sequence (P43140 whole entry): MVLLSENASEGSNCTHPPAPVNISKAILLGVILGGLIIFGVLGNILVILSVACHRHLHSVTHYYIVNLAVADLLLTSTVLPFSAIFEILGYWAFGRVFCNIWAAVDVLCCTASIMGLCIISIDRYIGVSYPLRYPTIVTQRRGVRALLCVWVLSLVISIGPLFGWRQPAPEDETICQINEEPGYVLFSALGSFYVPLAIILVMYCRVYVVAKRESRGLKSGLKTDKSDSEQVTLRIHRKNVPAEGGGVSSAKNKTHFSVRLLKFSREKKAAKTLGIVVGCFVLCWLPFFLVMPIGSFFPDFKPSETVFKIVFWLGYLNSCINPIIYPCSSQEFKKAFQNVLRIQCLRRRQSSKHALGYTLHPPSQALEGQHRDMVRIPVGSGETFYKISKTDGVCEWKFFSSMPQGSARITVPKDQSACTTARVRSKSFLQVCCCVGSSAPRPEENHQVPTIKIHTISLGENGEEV

[4] = DRUGMATRIX: Glutamate, NMDA, Agonism radioligand binding (ligand: [3H] CGP-39653); assay type: cell membranes, Rattus norvegicus, Wistar, Cerebral cortex, Membrane; conditions: Not Active = under 50% inhibition at 10 µM
[5] = target: T2, C-X-C chemokine receptor type 1 (Homo sapiens, UniProt P25024); note: in other assays of this panel Not Active means under 50% inhibition at 10 µM
T2 sequence (P25024 whole entry): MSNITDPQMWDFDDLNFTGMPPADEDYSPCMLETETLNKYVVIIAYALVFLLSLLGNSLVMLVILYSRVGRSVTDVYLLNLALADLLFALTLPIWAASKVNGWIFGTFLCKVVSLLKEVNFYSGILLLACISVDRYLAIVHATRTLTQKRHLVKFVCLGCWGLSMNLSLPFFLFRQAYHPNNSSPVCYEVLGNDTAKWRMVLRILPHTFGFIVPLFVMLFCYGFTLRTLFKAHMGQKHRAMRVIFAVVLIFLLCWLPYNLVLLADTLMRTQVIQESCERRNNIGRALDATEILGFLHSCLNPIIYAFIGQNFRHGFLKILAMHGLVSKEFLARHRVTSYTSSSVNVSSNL

SMILES | IC50 [1] | IC50 (Histamine H2 receptor) | IC50 [2] | IC50 (Melanocortin receptor 4) | IC50 [3] | IC50 [4] | Ki [4] | IC50 [5] | Ki [1] | Ki (Histamine H2 receptor) | Ki [2] | Ki (Melanocortin receptor 4) | Ki [3] | Ki [5] | IC50 ([3]; read-out: IC50) [nM] | Ki ([3]; read-out: Ki) [nM]
CC(C)CN(C[C@@H](O)[C@H](Cc1ccccc1)NC(=O)O[C@H]1CCOC1)S(=O)(=O)c1ccc(N)cc1 | Not Active | Not Active | Not Active | Not Active | Not Active | Not Active | Not Active | Not Active | – | – | – | – | – | – | – | –
c1ccc(Nc2ccc(Nc3ccccc3)cc2)cc1 | Not Active | Not Active | Not Active | Not Active | Not Active | Not Active | Not Active | Not Active | – | – | – | – | – | – | – | –
COc1cc2c3cc1Oc1cc(ccc1O)C[C@@H]1c4c(cc(OC)c(O)c4Oc4ccc(cc4)C[C@@H]3N(C)CC2)CC[N+]1(C)C.[Cl-] | Not Active | Not Active | Not Active | Not Active | Not Active | Not Active | Not Active | Not Active | – | – | – | – | – | – | – | –
NC(=O)N1c2ccccc2CCc2ccccc21 | Not Active | Not Active | Not Active | Not Active | Not Active | Not Active | Not Active | Not Active | – | – | – | – | – | – | – | –
O=C1CC[C@@H](N2C(=O)c3ccccc3C2=O)C(=O)N1 | Not Active | Not Active | Not Active | Not Active | Not Active | Not Active | Not Active | Not Active | – | – | – | – | – | – | – | –
Cc1onc(O)c1CC(N)C(=O)O (racemic) [(R,S)-AMPA] | Not Active | Not Active | Not Active | Not Active | Not Active | Not Active | Not Active | Not Active | – | – | – | – | – | – | – | –
Cc1ccc2cc3c(ccc4ccccc43)c3c2c1CC3 [3-METHYLCHOLANTHRENE] | Not Active | Not Active | Not Active | Not Active | Not Active | Not Active | Not Active | Not Active | – | – | – | – | – | – | – | –
CC[C@@]1(O)C[C@H](O[C@H]2C[C@H](N(C)C)[C@H](O[C@H]3C[C@H](O)[C@H](O[C@H]4CCC(=O)[C@H](C)O4)[C@H](C)O3)[C@H](C)O2)c2c(cc3c(c2O)C(=O)c2c(O)cccc2C3=O)[C@H]1C(=O)OC [ACLARUBICIN] | Not Active | Not Active | Not Active | Not Active | Not Active | Not Active | Not Active | Not Active | – | – | – | – | – | – | – | –
Nc1nc2c(ncn2COCCO)c(=O)[nH]1 [ACYCLOVIR] | Not Active | Not Active | Not Active | Not Active | Not Active | Not Active | Not Active | Not Active | – | – | – | – | – | – | – | –
Cc1c(C)c2c(c(C)c1O)CC[C@@](C)(CCC[C@H](C)CCC[C@H](C)CCCC(C)C)O2 [ALPHA-TOCOPHEROL] | Not Active | Not Active | Not Active | Not Active | Not Active | Not Active | Not Active | Not Active | – | – | – | – | – | – | – | –
CN(C)c1nc(N(C)C)nc(N(C)C)n1 [ALTRETAMINE] | Not Active | Not Active | Not Active | Not Active | Not Active | Not Active | Not Active | Not Active | – | – | – | – | – | – | – | –
Nc1c(Br)cc(Br)cc1CN[C@H]1CC[C@H](O)CC1 [AMBROXOL] | Not Active | Not Active | Not Active | Not Active | Not Active | Not Active | Not Active | Not Active | – | – | – | – | – | – | – | –
NCCCCCC(=O)O [AMINOCAPROIC ACID] | Not Active | Not Active | Not Active | Not Active | Not Active | Not Active | Not Active | Not Active | – | – | – | – | – | – | – | –
CCC1(c2ccc(N)cc2)CCC(=O)NC1=O (stereo unspecified) [AMINOGLUTETHIMIDE] | Not Active | Not Active | Not Active | Not Active | Not Active | Not Active | Not Active | Not Active | – | – | – | – | – | – | – | –
Cc1ccc(/N=C/N(C)/C=N/c2ccc(C)cc2C)c(C)c1 [AMITRAZ] | Not Active | Not Active | Not Active | Not Active | Not Active | Not Active | Not Active | Not Active | – | – | – | – | – | – | – | –
CCOC(=O)C1=C(COCCN)NC(C)=C(C(=O)OC)C1c1ccccc1Cl (stereo unspecified) [AMLODIPINE] | Not Active | Not Active | Not Active | Not Active | Not Active | Not Active | Not Active | Not Active | – | – | – | – | – | – | – | –
COc1ccc(C[C@H]2NC[C@H](O)[C@H]2OC(C)=O)cc1 [ANISOMYCIN] | Not Active | Not Active | Not Active | Not Active | Not Active | Not Active | Not Active | Not Active | Not Active | Not Active | Not Active | Not Active | Not Active | Not Active | – | –
Nc1ncn([C@@H]2O[C@H](CO)[C@@H](O)[C@H]2O)c(=O)n1 [AZACITIDINE] | Not Active | Not Active | Not Active | Not Active | Not Active | Not Active | Not Active | Not Active | – | – | – | – | – | – | – | –
CN(C)C(=O)Oc1cc(OC(=O)N(C)C)cc(C(O)CNC(C)(C)C)c1 (stereo unspecified) [BAMBUTEROL] | Not Active | Not Active | Not Active | Not Active | Not Active | Not Active | Not Active | Not Active | – | – | – | – | – | – | – | –
CN(C)CCCN1c2ccccc2Sc2ccc(Cl)cc21 [CHLORPROMAZINE] | Not Active | – | Not Active | – | – | Not Active | Not Active | Not Active | – | – | – | – | – | – | – | –
CC(C)(C)NCC(O)c1cc(Cl)c(N)c(Cl)c1 (stereo unspecified) [CLENBUTEROL] | Not Active | Not Active | – | Not Active | Not Active | Not Active | Not Active | Not Active | – | – | – | – | – | – | – | –
Clc1cccc(Cl)c1NC1=NCCN1 [CLONIDINE] | Not Active | Not Active | Not Active | Not Active | – | Not Active | Not Active | Not Active | – | – | – | – | – | – | – | –
CNCCCN1c2ccccc2CCc2ccccc21 [DESIPRAMINE] | Not Active | Not Active | – | Not Active | Not Active | Not Active | Not Active | Not Active | – | – | – | – | – | – | – | –
COc1cc2nc(N3CCN(C(=O)C4COc5ccccc5O4)CC3)nc(N)c2cc1OC (stereo unspecified) [DOXAZOSIN] | Not Active | Not Active | – | Not Active | – | Not Active | Not Active | Not Active | – | – | – | – | – | – | 1.55 | 0.628
COCCc1ccc(OCC(O)CNC(C)C)cc1 (stereo unspecified) [METOPROLOL] | Not Active | Not Active | – | Not Active | Not Active | Not Active | Not Active | Not Active | – | – | – | – | – | – | – | –
Cc1ccc(N(CC2=NCCN2)c2cccc(O)c2)cc1 [PHENTOLAMINE] | Not Active | Not Active | Not Active | Not Active | – | Not Active | Not Active | Not Active | – | – | – | – | – | – | – | –
